Measurements reported in ChEMBL document CHEMBL1131625, “Neurosteroid analogues. 6. The synthesis and GABAA receptor pharmacology of enantiomers of dehydroepiandrosterone sulfate, pregnenolone sulfate, and (3alpha,5beta)-3-hydroxypregnan-20-one sulfate” (J Med Chem, 1998).

How the values were obtained:
[1] = organism: Rattus norvegicus; experiment: Inhibition of GABA-mediated currents by compound; assay type: functional
[2] = molecular target: GABA-A receptor; anion channel; experiment: Inhibitory activity against Gamma-aminobutyric acid A (GABA-A) receptor of rat hippocampal neurons; assay type: tissue-based, Hippocampus
[3] = organism: Rattus norvegicus; experiment: The Non-competitive block of GABA-mediated currents in cultured neurons from rat ventral mesencephalon; assay type: functional

CC(=O)[C@@H]1CC[C@H]2[C@@H]3CC[C@H]4C[C@@H](OS(=O)(=O)O)CC[C@@]4(C)[C@H]3CC[C@@]12C
Ki [1]: 47 µM

CC(=O)[C@@H]1CC[C@@H]2[C@H]3CC=C4C[C@H](OS(=O)(=O)O)CC[C@@]4(C)[C@@H]3CC[C@]21C
IC50 [2]: 76 µM

CC(=O)[C@H]1CC[C@H]2[C@@H]3CC[C@@H]4C[C@H](OS(=O)(=O)O)CC[C@]4(C)[C@H]3CC[C@]12C
IC50 [2]: 39 µM | Ki [1]: 39 µM

CC(=O)[C@H]1CC[C@H]2[C@@H]3CC=C4C[C@@H](OS(=O)(=O)O)CC[C@]4(C)[C@H]3CC[C@]12C
IC50 [2]: 82 µM

C[C@@]12CC[C@@H]3[C@H](CC=C4C[C@H](OS(=O)(=O)O)CC[C@]43C)[C@H]1CCC2=O
IC50 [2]: 80 µM | Ki [3]: 81 µM

C[C@]12CC[C@H](OS(=O)(=O)O)CC1=CC[C@@H]1[C@@H]2CC[C@]2(C)C(=O)CC[C@@H]12
IC50 [2]: 11 µM | Ki [3]: 13 µM
